{
  "source": "patent US20090131354A1",
  "about": "“miR-126 REGULATED GENES AND PATHWAYS AS TARGETS FOR THERAPEUTIC INTERVENTION” (priority 2007, published 2009)",
  "key": {"H460 lung cancer cells": {"tested_on": "H460 lung cancer cells", "test": "Dose-dependent inhibition of proliferation (Alamar Blue), H460", "format": "cell-based, human", "details": "normalized to mock-transfected cells (0 pM = 100%)", "description": "Lipid-based reverse transfections were carried out in triplicate according to a published protocol (Ovcharenko et al., 2005) and the following parameters: Cells (5,000-12,000 per 96 well), 0.1-0.2 μl Lipofectamine™ 2000 (cat. no. 11668-019, Invitrogen Corp., Carlsbad, Calif., USA) in 20 μl OptiMEM (Invitrogen), 30 nM final concentration of miRNA in 100 μl. Electroporation of H226 cells was carried out using the BioRad Gene Pulser Xcell™ instrument (BioRad Laboratories Inc., Hercules, Calif., USA) with the following settings: 5×10^6 cells with 5 μg miRNA in 200 μl OptiMEM (1.6 μM miRNA), square wave pulse at 250 V for 5 ms. Electroporated H226 cells were seeded at 7,000 cells per 96-well in a total volume of 100 μl. All cells except for Calu-3 cells were harvested 72 hours post transfection or electroporation for assessment of cellular proliferation. Calu-3 cells were harvested 10 days post transfection. Proliferation assays were performed using Alamar Blue (Invitrogen) following the manufacturer's instructions. As a control for inhibition of cellular proliferation, siRNA against the motor protein kinesin 11, also known as Eg5, was used. Eg5 is essential for cellular survival of most eukaryotic cells and a lack thereof leads to reduced cell proliferation and cell death (Weil et al., 2002). siEg5 was used in lipid-based transfection following the same experimental parameters that apply to miRNA. The inventors also used a DNA topoisomerase II inhibitor, etoposide, at a final concentration of 10 μM and 50 μM as an internal standard for the potency of miRNAs. Etoposide is an FDA-approved DNA topoisomerase II inhibitor in the treatment of lung cancer. […] Percent (%) proliferation values from the Alamar Blue assay were normalized to values from cells treated with negative control miRNA. Percent proliferation of hsa-miR-126 treated cells relative to cells treated with negative control miRNA (100%) is shown in Table 6 and in FIG. 1.\nThe inventors determined sensitivity and specificity of hsa-miR-126 by administering hsa-miR-126 or negative control miRNA at increasing concentrations, ranging from 0 pM to 3,000 pM (Table 7, FIG. 2). Delivery of miRNA and assessment of cellular proliferation of A549 and H460 cells were done as described above. Proliferation values from the Alamar Blue assay were normalized to values obtained from mock-transfected cells (0 pM=100% proliferation). Increasing amounts of negative control miRNA (NC) had no effect on cellular proliferation of A549 or H460 cells (Table 7 and FIG. 2). In contrast, the growth-inhibitory phenotype of hsa-miR-126 is dose-dependent and correlates with increasing amounts of hsa-miR-126 (Table 7 and FIG. 2). Hsa-miR-126 induces a specific therapeutic response at concentrations as low as 300 pM."}, "[1]": {"tested_on": "lung cancer (A549, HTB-57) or cervical cancer (HeLa) cells", "details": "A549, HTB-57, HeLa; miRNA given before the compound; cited from earlier work"}, "[2]": {"tested_on": "Du145 prostate cancer cells", "test": "Alamar Blue proliferation assay, Du145", "format": "cell-based, human", "details": "30 nM, normalized to negative control miRNA (100% proliferation)", "text": "The inventors assessed the therapeutic effect of hsa-miR-126 for prostate cancer by using 4 individual human prostate cancer cell lines. To measure cellular proliferation of prostate cancer cells, the following prostate cancer cell lines were used: PPC-1, derived from a bone metastasis; Du145, derived from a brain metastasis; RWPE2, derived from prostate cells immortalized by human papillomavirus 18 and transformed by the K-RAS oncogene; and LNCaP, derived from a lymph node metastasis (Stone et al., 1978; Horoszewicz et al., 1980; Brothman et al., 1991; Pretlow et al., 1993; Bello et al., 1997). PPC-1 and Du145 cells lack expression of the prostate-specific antigen (PSA) and are independent of androgen receptor (AR) signaling. In contrast, RWPE2 and LNCaP cells test positive for PSA and AR. Cells were transfected with synthetic hsa-miR-126 (Pre-miR™-hsa-miR-126, Ambion cat. no. AM 17100) or negative control miRNA (NC; Pre-miR™ microRNA Precursor Molecule-Negative Control #2; Ambion cat. no. AM17111) in a 96-well format using a lipid-based transfection reagent. […] Proliferation was assessed 4-7 days post-transfection using Alamar Blue™ (Invitrogen) following the manufacturer's instructions. […] Fluorescent light units (FLU) were measured after 3 hours, normalized to the control, and plotted as percent change in proliferation. […]"}, "[3]": {"tested_on": "HCC2935 lung cancer cells", "test": "Alamar Blue proliferation assay, HCC2935", "format": "cell-based, human", "details": "HCC2935, 30 nM, 72 h, relative to NC miRNA (100%)", "text": "The inventors assessed the therapeutic effect of hsa-miR-126 for lung cancer by using 11 individual lung cancer cell lines. To measure cellular proliferation of lung cancer cells, the following non-small cell lung cancer (NSCLC) cells were used: cells derived from lung adenocarcinoma (A549, H1299, H522, H838, Calu-3, HCC827, HCC2935), cells derived from lung squamous cell carcinoma (H520, H226), cells derived from lung bronchioalveolar carcinoma (H1650), and cells derived from lung large cell carcinoma (H460). Synthetic hsa-miR-126 (Pre-miR™-hsa-miR-126, Ambion cat. no. AM17100) or negative control (NC) miRNA (Pre-miR™ microRNA Precursor Molecule-Negative Control #2; Ambion cat. no. AM17111) was delivered via lipid-based transfection into A549, H1299, H522, H838, Calu-3, HCC827, HCC2935, H520, H1650, and H460 cells, and via electroporation into H226 cells.\nLipid-based reverse transfections were carried out in triplicate according to a published protocol (Ovcharenko et al., 2005) and the following parameters: Cells (5,000-12,000 per 96 well), 0.1-0.2 μl Lipofectamine™ 2000 (cat. no. 11668-019, Invitrogen Corp., Carlsbad, Calif., USA) in 20 μl OptiMEM (Invitrogen), 30 nM final concentration of miRNA in 100 μl. […]"}},
  "data": [
    {"substance": "hsa-miR-126 (UCGUACCGUGAGUAAUAAUGC; synthetic pre-miR form, further chemistry not given here) [Synthetic hsa-miR-126 (Pre-miR™-hsa-miR-126, Ambion cat. no. AM17100)]", "values": [
      {"measurement": "% proliferation", "setting": "H460 lung cancer cells; H460 cells, 3 pM miRNA", "result": 105.60, "unit": "%"},
      {"measurement": "% proliferation", "setting": "H460 lung cancer cells; H460 cells, 30 pM miRNA", "result": 108.98, "unit": "%"},
      {"measurement": "% proliferation", "setting": "H460 lung cancer cells; H460 cells, 300 pM miRNA", "result": 86.46, "unit": "%"},
      {"measurement": "% proliferation", "setting": "H460 lung cancer cells; H460 cells, 3,000 pM miRNA", "result": 33.91, "unit": "%"},
      {"measurement": "effect on cell death induced by therapeutic compound (e.g., etoposide)", "setting": "[1]", "result": "increased the capacity of the therapeutic compound to induce death"},
      {"measurement": "% proliferation", "setting": "[2]", "result": 63.41, "unit": "%"},
      {"measurement": "% proliferation", "setting": "[3]", "result": 66.89, "unit": "%"}
    ]}
  ]
}
